In brackets after ≈: the same amount, converted by molar mass.

One data set has as its system A549 cells. Put plainly: In vitro cytotoxicity, crystal violet staining. The format is cell-based. Conditions: Homo sapiens, BA, 72 h treatment. How it is done: (§1) NSCLC cells A549 and H1650 were plated in 96 well plates at 10,000 cells/well density. After 24 h, cells were treated with various concentrations of BBR and BA. DMSO (0.1%) treated cells were considered as control cells. After 72 h treatment, cells were fixed in 0.25% gultaraldehyde and stained with 0.05% crystal violet staining. Percent of cell viability or cell kill was calculated by considering DMSO treated control cells as 100% viable (zero % cell kill).

The test system of the next data set is H1650 cells. Put plainly: In vitro cytotoxicity, crystal violet staining. The format is cell-based. Conditions: Homo sapiens, NCI-H1650; BA, 72 h treatment. How it is done:
as §1

Data set [1] can be described thus: In vitro drug release of BA (USP type II paddle, HPLC). To be noted: after 24 h; pH 5.8, 2.5% SLS, 37°C. The format is physicochemical. How it is done: In vitro drug release study was conducted in PBS (pH 5.8) containing 1% volpo. Briefly, 50 mg of free drug or equivalent amount of SD form of BBR and BA were dispersed in 500 ml of release medium and the drug release profile was studied at pH 5.8. Release studies were performed according to the USP type II paddle method, at 37±0.5°C while stirring constantly at 50 rpm. Samples were withdrawn at different time points, centrifuged and drug content in the samples was analyzed by spectrometric method of analysis. The withdrawn samples were replaced by equal volumes of fresh medium maintained at the same temperature. Except replacing the 1% Volpo with 2.5% SLS, similar conditions were maintained for the in vitro drug release studies of BA in free drug and SD forms. The released BA concentrations were measured by established HPLC method.

Data set [2] is described as follows: Oral pharmacokinetic study. The format is in vivo, Sprague Dawley rats. How it is done:
Rats were fasted overnight before the start of the experiments and randomly divided into two experimental groups. […] Pharmacokinetic parameters were analyzed using non-compartmental techniques with WinNonlin® 5.0 software (Pharsight Corporation, Mountain View, CA, USA). SHAM analysis (i.e., Slope, Height, Area, and Moment) utilized plasma concentration-time data to estimate the area under the curve (AUC), apparent terminal elimination rate constant (λz), terminal elimination half-life (t1/2) and the area under the first moment of the plasma concentration–time curve (AUMC). The AUC was calculated for each rat using the piecewise log trapezoidal areas and extrapolated to infinity by dividing λz into the last measured plasma concentration (i.e. Clast/λz). From the values of AUC0_0-∞ and AUMC0-∞, the clearance (CL), mean residence time (MRT) and volume of distribution at tissue equilibrium (Vss) were calculated based on noncompartmental monoexponential assumptions as: CL = Dose/AUC, MRT≅AUMC/AUC and Vss = CL×MRT. The noncompartmental parameters were calculated for each rat before averaging dose groups. The pharmacokinetic parameters such as AUC, Cmax, t1/2, tmax, MRT, etc were compared between the free drug and SD formulations.

Data set [3] concerns A549 orthotopic lung tumors. Put plainly: A549 orthotopic lung cancer model. The format is in vivo, athymic Nu/nu mice. To be noted: 100 mg/kg orally daily for 3 weeks. How it is done: (§2) A549 cells were grown in F12K Medium containing 10% FBS and standard antibiotic mix at 5% CO2 and 37°C. For orthotopic lung tumor model, mice were anesthetized with Isoflurane and a 5 mm skin incision was made to the left chest, 5 mm below the scapula. Hamilton syringes (1 ml) with 28-gauge hypodermic needles were used to inject the cell inoculums through the sixth intercostal space into the left lung. The needle was quickly advanced to a depth of 3 mm and quickly removed after the injection of the A549 cells (2 million/mouse) suspended in 100 µL PBS (pH 7.4) into the lung parenchyma. For metastatic lung tumor models H1650 cells (2 million in 100 µL PBS) were intravenously administered to mice via tail vein. […] Only cell suspensions of >95% viability as determined by tryphan blue exclusion were used. Wounds from the incisions were closed with surgical skin clips. […] Drug treatment was started 2 weeks after the tumor cell implantation. BBR free drug or SD formulation was given orally at the dose of 100 mg/kg daily for 3 weeks. […] Body weights were monitored throughout the study. Animal survival rates were recorded during the study. The lung weights and tumor volumes were used for assessment of therapeutic activity of the treatments. After sacrificing the animals lung weights and tumor nodules were recorded in metastatic tumor models.

The subject of data set [4] is H1650 metastatic lung tumors. Description: H1650 metastatic lung cancer model. The format is in vivo, athymic Nu/nu mice. Conditions: 100 mg/kg orally daily for 3 weeks. How it is done:
as §2

For data set [5], the system named is TUNEL positive apoptotic cells. Description: TUNEL assay on orthotopic lung tumor sections. The data set is classed as in vivo, athymic Nu/nu mice. How it is done:
Terminal deoxynucleotidyl transferase-mediated dUTP nick end labeling (TUNEL) assay was used to study the DNA fragmentation or apoptosis detection. TUNEL assay was performed on 4–5 µm thick sections as per the kit manual. Formalin-fixed tumor tissues were embedded in paraffin and sectioned ([…]). DeadEndTM Colorimetric Apoptosis Detection System (Promega, Madison, WI) allows the recognition of apoptotic nuclei in paraffin-embedded tissue sections fixed on slides according to the manufacturer's protocol. Briefly, the equilibration buffer was added to slides and incubated for 10 minutes followed by 10-minute incubation in […] proteinase K solution. The sections were washed in PBS and incubated with TdT enzyme at 37°C for 1 h in a humidified chamber for incorporation of biotinylated nucleotides at the 3-OH ends of DNA. The slides were incubated in horseradish peroxidase-labeled streptavidin to bind the biotinylated nucleotides followed by detection with stable chromagen DAB. The images on the slides were visualized with an Olympus BX40 light microscope equipped with a computer-controlled digital camera (DP71, Olympus Center Valley, PA, USA). Three slides per group were stained and apoptotic cells were identified by dark brown […] staining.

The subject of another data set is Bax. Description: Real time PCR of tumors. The format is in vivo, athymic Nu/nu mice. To be noted: normalised to β-actin. How it is done:
(§3) Total RNA was extracted from tumors using RNeasy Kit and quantified by UV method using Nanodrop system. RNA was converted to complementary DNA using RT^2 First Strand Kit and RT^2 SYBR Green ROX qPCR Mastermix as per manufacturer's instructions. p38, Phospho-JNK, Bax, Bcl-2, cleaved caspase 8, cleaved caspase 3, survivin and BAD, mRNA expressions amplification was performed on an ABI 7300 RT-PCR (Applied Biosystems, Carlsbad, CA, USA) and data analysis done with a PCR Array Data Analysis Software (SA Biosciences, Valencia, CA, USA). The mRNA levels of p38, Phospho-JNK, Bax, Bcl-2, cleaved caspase 8, cleaved caspase 3, survivin and BAD and β-actin were calculated. The β-actin was a normalization control for gene expression.
For orientation: In qPCR the cycle at which signal appears reflects the starting amount.

A further data set concerns Bcl-2. Put plainly: Real time PCR of tumors. The format is in vivo, athymic Nu/nu mice. To be noted: normalised to β-actin. How it is done:
as §3

The subject of another data set is Phospho-JNK. Description: Real time PCR of tumors. To be noted: normalised to β-actin. The format is in vivo, athymic Nu/nu mice. How it is done: as §3
For another data set, the system named is cleaved caspase-3. Description: Real time PCR of tumors. The format is in vivo, athymic Nu/nu mice. Conditions: normalised to β-actin. How it is done: as §3
A further data set concerns cleaved caspase-8. Description: Real time PCR of tumors. The data set is classed as in vivo, athymic Nu/nu mice. Conditions: normalised to β-actin. How it is done: as §3
The test system of a further data set is p38. Put plainly: Real time PCR of tumors. The format is in vivo, athymic Nu/nu mice. Conditions: normalised to β-actin. How it is done:
as §3

Where [6] appears, read: Sprague Dawley, rat, plasma, po, 100 mg/kg orally.

Description for Caco-2 cell monolayers: Caco-2 cells (passage #29) were cultured at 37°C with culture medium replaced every 2 days in an atmosphere of 5% CO2 and 95% relative humidity. Cells were harvested upon reaching approximately 80-90% confluence with 0.25% trypsin–EDTA. Cells were grown on 1.12 cm^2 0.4 μm pore polycarbonate membrane inserts in 12 mm × 12 transwell permeable support plates (Corning, NY, USA). Caco-2 cells were seeded onto membranes at 50,000 cells/well. Individual wells received 1.5 mL of culture medium at the bottom and 0.5 mL of medium was added to the top of inserts which was changed on alternate days. Confluent monolayers were used for permeability studies at ~21 days post seeding. Transepithelial electrical resistance (TEER) of Caco-2 monolayers was measured prior to all experiments using the EVOM volt-ohm-meter (Millicell-ERS; Millipore, USA) to ensure monolayer integrity. The TEER (Ω·cm^2) values of the cell monolayers were determined by the resistance (Ω) × effective membrane area (cm^2). TEER values were measured across each cell monolayer prior to beginning the experimentation and at the last sample collection time point. Transport studies were initiated by removing culture medium from the apical (A) and basolateral (B) sides of the cell monolayer. […] The effective permeability (Peff) (cm/s) was determined using Eq. 1: […]

On to Lucifer Yellow, for which the “mean permeability of paracellular control” value in the data set with Caco-2 cell monolayers was under 1.5 nm/s.

On to `C=C(C)[C@@H]1CC[C@]2(C(=O)O)CC[C@]3(C)[C@H](CC[C@@H]4[C@@]5(C)CC[C@H](O)C(C)(C)[C@@H]5CC[C@]43C)[C@@H]12` [BA free drug, 3β, hydroxy-lup-20(29)-en-28-oic acid], for which the IC50 – broadly, the concentration at which inhibition is half-maximal – in the data set on A549 cells amounted to 8.92 ± 1.68 mg/L (≈ 19.5 µM). This compound returned a 50% inhibitory concentration (IC50) with H1650 cells of 7.25 ± 1.54 mg/L (≈ 15.9 µM). In addition, the drug release in [1] came to 11.3%. This compound also came in with a CL in data set [2] (100 mg/kg orally) of 0.113 ± 0.0175 mL/min/kg. In data set [2] (BA, 100 mg/kg orally), the “AUMC (0-∞)” value was 116.04±23.13 µg.h^2/ml and the Vd turned out to be 0.12243 ± 0.01586 L/kg. Besides, the half-life in [2] (Sprague Dawley, rat, plasma, po, 100 mg/kg, read-out: t½ (converted)) is 12.3 ± 3.68 h. Also, in [2] (setting [6]), the MRT (as a rule, the average time that molecules of a dose stay in the body) was determined as 15.1 ± 3.86 h and the Tmax (commonly the time from dosing to the highest level) stood at 2.36 ± 0.38 h. Further, in data set [2] (Sprague Dawley, rat, plasma, po, BA, 100 mg/kg orally), the AUC(0-inf) (in general, total exposure, with the tail of the curve extrapolated) stood at 7.26 ± 1.65 µg·h/mL. Moreover, in data set [2] (Sprague Dawley, rat, po, BA, 100 mg/kg orally, plasma), the maximum concentration (Cmax) – broadly, the highest concentration seen after dosing – stood at 1.16 ± 0.22 µg/mL. Moreover, in data set [3], the lung tumor weights amounted to 404.31 ± 29.50 mg, the “reduction in tumor volumes compared to untreated control” value is on record as 27.72% and the “reduction in tumor weights compared to untreated control tumors” value is recorded as “Approximately 31.11%”. In data set [4], the “decrease of tumor nodules in the peripheral lobes” value was 1.31 fold and the “tumor weights reduced to, compared to untreated control” value worked out at 75.94%. In addition, the “increase in TUNEL positive apoptotic cells compared to control tumors” value in data set [5] was found to be 8.14 fold. Also, the “Bax mRNA expression increased compared to control” value in the data set on Bax turned out to be 1.08 fold. Besides, the “Bcl-2 mRNA expression down regulated compared to untreated control” value with Bcl-2 was determined as 1.36 fold. Moreover, the “Phospho-JNK mRNA expression increased compared to control” value with Phospho-JNK is 1.69 fold. In the data set on cleaved caspase-3, the “cleaved caspase-3 mRNA expression higher than control” value stood at 1.30 fold. For the same compound, the “cleaved caspase-8 mRNA expression higher than control” value in the data set with cleaved caspase-8 is given as 1.25 fold. For the same compound, the “p38 mRNA expression increased compared to control” value in the data set with p38 stood at 1.20 fold.

The record behind these values is paper PMC3948684, “Approaches to Improve the Oral Bioavailability and Effects of Novel Anticancer Drugs Berberine and Betulinic Acid” (PLoS ONE, 2014).
